This is an account of results in ChEMBL document CHEMBL5696441 (Nat Chem Biol, 2011).

In assay [1] the target is Non-receptor tyrosine-protein kinase TYK2 (Homo sapiens) (UniProt P29597). As to the kind of experiment: Inhibition of human TYK2 assessed as residual activity at 1 uM using poly(Ala,Glu,Lys,Tyr)6:2:5:1 as substrate in presence of 33P-ATP by ProQinase assay relative to control.
The nature of assay [2]: Anti-inflammatory activity against human derived medium respond PBMC cells assessed as inhibition in stimulated IL-4 cytokine release incubated for 2 hrs in the presence of LPS/SEB/aCD28 by Luminex based sandwich immunoassay. The format is functional, cell-based.
In assay [3] the target is Serine/threonine-protein kinase Nek7 (Homo sapiens) (UniProt Q8TDX7). The assay is described as follows: Inhibition of human NEK7 assessed as residual activity at 1 uM using casein as substrate in presence of 33P-ATP by ProQinase assay relative to control.
In assay [4] the target is T1, MAP/microtubule affinity-regulating kinase 4 (Homo sapiens) (UniProt Q96L34).
T1 sequence (whole entry): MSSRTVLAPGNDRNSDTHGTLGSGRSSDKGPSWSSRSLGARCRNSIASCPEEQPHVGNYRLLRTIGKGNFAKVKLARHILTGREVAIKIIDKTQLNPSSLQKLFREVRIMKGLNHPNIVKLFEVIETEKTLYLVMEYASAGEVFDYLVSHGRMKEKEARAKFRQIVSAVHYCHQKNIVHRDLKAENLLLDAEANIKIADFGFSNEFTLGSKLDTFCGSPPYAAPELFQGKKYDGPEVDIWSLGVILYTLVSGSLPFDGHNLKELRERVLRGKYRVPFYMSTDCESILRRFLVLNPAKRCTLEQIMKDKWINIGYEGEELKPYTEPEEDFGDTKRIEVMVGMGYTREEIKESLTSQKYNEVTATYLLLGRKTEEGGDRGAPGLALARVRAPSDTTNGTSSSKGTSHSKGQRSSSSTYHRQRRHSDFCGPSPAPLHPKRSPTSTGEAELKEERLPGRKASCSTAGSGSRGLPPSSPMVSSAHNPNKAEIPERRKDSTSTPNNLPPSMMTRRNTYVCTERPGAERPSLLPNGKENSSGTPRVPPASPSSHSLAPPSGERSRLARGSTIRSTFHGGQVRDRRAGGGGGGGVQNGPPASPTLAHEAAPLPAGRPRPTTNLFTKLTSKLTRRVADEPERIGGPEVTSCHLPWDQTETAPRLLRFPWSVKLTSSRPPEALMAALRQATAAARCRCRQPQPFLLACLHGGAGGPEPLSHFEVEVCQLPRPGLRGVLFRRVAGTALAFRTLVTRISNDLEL
As to the kind of experiment: Inhibition of human MARK4 assessed as residual activity at 1 uM using RBER-CHKtide as substrate in presence of 33P-ATP by ProQinase assay relative to control.

In assay [5] the target is Fibroblast growth factor receptor 1 (Homo sapiens) (UniProt P11362). As to the kind of experiment: Inhibition of human FGFR1 assessed as residual activity at 1 uM using PolyEY as substrate in presence of 33P-ATP by ProQinase assay relative to control.
Assay [6] addresses Mitogen-activated protein kinase 9 (Homo sapiens) (UniProt P45984). The assay is described as follows: Inhibition of human JNK2 assessed as residual activity at 1 uM using ATF2 as substrate in presence of 33P-ATP by ProQinase assay relative to control.
The target of assay [7] is SRSF protein kinase 2 (Homo sapiens) (UniProt P78362). The assay is described as follows: Inhibition of human SRPK2 assessed as residual activity at 1 uM using MBP as substrate in presence of 33P-ATP by ProQinase assay relative to control.
For assay [8], the system named is Mast/stem cell growth factor receptor Kit (Homo sapiens), P10721 [V559D,V654A]. The assay is described as follows: Inhibition of KIT V559D/V654A mutant (unknown origin) assessed as remaining activity at 1 uM by Kinome scan method relative to control.
Assay [9] deals with Serine/threonine-protein kinase pim-1 (Homo sapiens) (UniProt P11309). The assay is described as follows: Inhibition of human PIM1 assessed as residual activity at 1 uM using RBER-GSK3(14-27) as substrate in presence of 33P-ATP by ProQinase assay relative to control.
Assay [10] addresses Serine/threonine-protein kinase 17B (Homo sapiens) (UniProt O94768). As to the kind of experiment: Inhibition of DRAK2 (unknown origin) assessed as remaining activity at 1 uM by Kinome scan method relative to control.
Assay [11] concerns Tyrosine-protein kinase ABL1 (Homo sapiens), P00519 [Y253F]. The assay is described as follows: Inhibition of human ABL1 Y253F mutant assessed as residual activity at 1 uM using Poly(Ala,Glu,Lys,Tyr)6:2:5:1 as substrate in presence of 33P-ATP by ProQinase assay relative to control.
The target in assay [12] is G protein-coupled receptor kinase 3 (Homo sapiens) (UniProt P35626). The assay is described as follows: Inhibition of human GRK3 assessed as residual activity at 1 uM using casein as substrate in presence of 33P-ATP by ProQinase assay relative to control.
Assay [13] addresses Mast/stem cell growth factor receptor Kit (Homo sapiens) (UniProt P10721). As to the kind of experiment: Inhibition of human KIT assessed as residual activity at 1 uM using polyEY as substrate in presence of 33P-ATP by ProQinase assay relative to control.
The target in assay [14] is ALK tyrosine kinase receptor (Homo sapiens) (UniProt Q9UM73). The assay is described as follows: Inhibition of ALK (unknown origin) assessed as remaining activity at 1 uM by Kinome scan method relative to control.
Assay [15] deals with Cyclin-dependent kinase 7 (Homo sapiens) (UniProt P50613). As to the kind of experiment: Inhibition of CDK7 (unknown origin) assessed as remaining activity at 1 uM by Kinome scan method relative to control.
The target in assay [16] is Protein kinase C epsilon type (Homo sapiens) (UniProt Q02156). The assay is described as follows: Inhibition of human PKCepsilon assessed as residual activity at 1 uM using 3xChocktide-PKC(19-31) as substrate in presence of 33P-ATP by ProQinase assay relative to control.
Assay [17] concerns the target Serine/threonine-protein kinase 16 (Homo sapiens) (UniProt O75716). As to the kind of experiment: Inhibition of STK16 (unknown origin) assessed as remaining activity at 1 uM by Kinome scan method relative to control.
The subject of assay [18] is Epidermal growth factor receptor (Homo sapiens), P00533 [L858R,T790M]. The assay is described as follows: Inhibition of EGFR L858R/T790M mutant (unknown origin) assessed as remaining activity at 1 uM by Kinome scan method relative to control.
Assay [19] concerns RAF proto-oncogene serine/threonine-protein kinase (Homo sapiens), P04049 [Y340D,Y341D]. The assay is described as follows: Inhibition of human RAF1 Y340D/Y341D double mutant assessed as residual activity at 1 uM using MEK1-K97M as substrate in presence of 33P-ATP by ProQinase assay relative to control.

Fibroblast growth factor receptor 1 (Homo sapiens), sequence (P11362 22-822 limits assumed): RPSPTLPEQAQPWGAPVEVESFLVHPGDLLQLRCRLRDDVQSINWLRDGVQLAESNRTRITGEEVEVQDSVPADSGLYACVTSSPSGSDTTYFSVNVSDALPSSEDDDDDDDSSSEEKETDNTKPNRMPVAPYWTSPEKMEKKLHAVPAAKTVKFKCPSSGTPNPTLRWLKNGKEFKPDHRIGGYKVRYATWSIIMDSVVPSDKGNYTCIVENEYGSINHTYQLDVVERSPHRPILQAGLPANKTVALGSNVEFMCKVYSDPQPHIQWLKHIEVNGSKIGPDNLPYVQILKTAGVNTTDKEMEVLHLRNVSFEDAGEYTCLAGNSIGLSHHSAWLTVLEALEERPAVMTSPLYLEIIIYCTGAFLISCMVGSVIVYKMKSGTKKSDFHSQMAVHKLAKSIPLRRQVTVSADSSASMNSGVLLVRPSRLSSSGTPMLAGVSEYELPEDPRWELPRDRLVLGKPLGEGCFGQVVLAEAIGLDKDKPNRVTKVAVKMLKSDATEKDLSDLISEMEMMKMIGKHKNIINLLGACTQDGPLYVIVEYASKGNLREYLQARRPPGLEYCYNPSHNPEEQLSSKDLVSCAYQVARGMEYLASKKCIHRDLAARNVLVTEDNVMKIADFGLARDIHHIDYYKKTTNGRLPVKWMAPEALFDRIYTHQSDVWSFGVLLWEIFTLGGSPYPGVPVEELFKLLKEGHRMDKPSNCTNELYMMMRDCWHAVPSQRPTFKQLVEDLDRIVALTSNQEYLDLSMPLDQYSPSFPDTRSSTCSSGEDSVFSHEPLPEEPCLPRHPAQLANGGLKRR
Cyclin-dependent kinase 7 (Homo sapiens), sequence (P50613 whole entry): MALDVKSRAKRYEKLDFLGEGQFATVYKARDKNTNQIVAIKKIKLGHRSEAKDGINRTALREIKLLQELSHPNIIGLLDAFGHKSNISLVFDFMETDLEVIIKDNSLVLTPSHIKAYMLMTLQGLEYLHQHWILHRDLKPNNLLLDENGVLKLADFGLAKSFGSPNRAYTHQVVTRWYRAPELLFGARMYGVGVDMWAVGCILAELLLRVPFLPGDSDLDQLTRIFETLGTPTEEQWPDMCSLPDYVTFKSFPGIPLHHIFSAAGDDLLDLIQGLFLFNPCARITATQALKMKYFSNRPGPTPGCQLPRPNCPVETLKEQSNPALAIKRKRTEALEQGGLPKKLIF
Protein kinase C epsilon type (Homo sapiens), sequence (Q02156 whole entry): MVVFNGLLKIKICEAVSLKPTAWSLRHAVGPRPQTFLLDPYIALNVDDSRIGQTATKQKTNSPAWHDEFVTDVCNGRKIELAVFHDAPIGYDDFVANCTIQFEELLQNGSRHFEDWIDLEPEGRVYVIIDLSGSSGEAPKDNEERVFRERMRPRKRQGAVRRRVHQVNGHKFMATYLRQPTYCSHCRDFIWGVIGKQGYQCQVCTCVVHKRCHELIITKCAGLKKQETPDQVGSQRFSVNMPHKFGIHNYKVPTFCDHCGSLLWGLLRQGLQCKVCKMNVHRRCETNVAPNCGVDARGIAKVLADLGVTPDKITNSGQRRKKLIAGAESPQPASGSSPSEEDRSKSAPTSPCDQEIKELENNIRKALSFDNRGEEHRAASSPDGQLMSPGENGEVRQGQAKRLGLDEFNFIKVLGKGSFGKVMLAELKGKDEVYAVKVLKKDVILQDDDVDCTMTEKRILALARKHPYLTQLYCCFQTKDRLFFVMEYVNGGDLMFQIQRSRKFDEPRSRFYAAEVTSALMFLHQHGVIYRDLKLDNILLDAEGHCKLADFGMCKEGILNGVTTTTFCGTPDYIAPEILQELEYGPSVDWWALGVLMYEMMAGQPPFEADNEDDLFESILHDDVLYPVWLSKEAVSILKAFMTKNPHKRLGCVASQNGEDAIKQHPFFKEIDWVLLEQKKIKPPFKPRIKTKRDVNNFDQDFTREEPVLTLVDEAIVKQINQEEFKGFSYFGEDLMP
Non-receptor tyrosine-protein kinase TYK2 (Homo sapiens), sequence (P29597 whole entry): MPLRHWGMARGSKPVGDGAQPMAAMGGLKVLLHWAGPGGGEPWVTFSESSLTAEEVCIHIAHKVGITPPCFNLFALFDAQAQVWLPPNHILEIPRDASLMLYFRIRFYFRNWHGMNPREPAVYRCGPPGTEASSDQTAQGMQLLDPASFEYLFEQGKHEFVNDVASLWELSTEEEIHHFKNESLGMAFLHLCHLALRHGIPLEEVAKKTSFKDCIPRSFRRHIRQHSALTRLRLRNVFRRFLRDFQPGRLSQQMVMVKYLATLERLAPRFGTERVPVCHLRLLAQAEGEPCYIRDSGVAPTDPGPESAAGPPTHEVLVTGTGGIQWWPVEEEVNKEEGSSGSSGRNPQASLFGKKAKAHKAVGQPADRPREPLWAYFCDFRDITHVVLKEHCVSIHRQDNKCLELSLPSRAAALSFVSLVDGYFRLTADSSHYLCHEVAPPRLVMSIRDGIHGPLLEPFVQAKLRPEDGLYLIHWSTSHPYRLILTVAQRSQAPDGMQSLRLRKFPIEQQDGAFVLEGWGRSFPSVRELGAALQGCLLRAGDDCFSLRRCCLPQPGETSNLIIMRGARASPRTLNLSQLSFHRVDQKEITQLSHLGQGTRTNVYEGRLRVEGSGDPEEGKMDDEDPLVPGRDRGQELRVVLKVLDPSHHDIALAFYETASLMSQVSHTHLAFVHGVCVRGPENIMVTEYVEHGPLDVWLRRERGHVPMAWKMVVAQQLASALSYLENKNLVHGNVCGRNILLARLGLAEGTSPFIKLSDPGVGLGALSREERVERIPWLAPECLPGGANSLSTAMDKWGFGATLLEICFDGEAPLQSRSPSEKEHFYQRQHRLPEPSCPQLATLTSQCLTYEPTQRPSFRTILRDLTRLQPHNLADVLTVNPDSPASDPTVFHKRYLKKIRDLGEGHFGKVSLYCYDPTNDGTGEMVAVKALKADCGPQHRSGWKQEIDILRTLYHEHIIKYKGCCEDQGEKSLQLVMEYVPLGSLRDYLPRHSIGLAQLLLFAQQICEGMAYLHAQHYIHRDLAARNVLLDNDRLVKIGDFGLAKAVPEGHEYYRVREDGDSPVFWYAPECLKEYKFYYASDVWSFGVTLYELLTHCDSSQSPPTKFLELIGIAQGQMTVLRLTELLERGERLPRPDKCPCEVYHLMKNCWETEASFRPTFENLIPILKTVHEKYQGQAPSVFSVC
Mitogen-activated protein kinase 9 (Homo sapiens), sequence (P45984 whole entry, looked up): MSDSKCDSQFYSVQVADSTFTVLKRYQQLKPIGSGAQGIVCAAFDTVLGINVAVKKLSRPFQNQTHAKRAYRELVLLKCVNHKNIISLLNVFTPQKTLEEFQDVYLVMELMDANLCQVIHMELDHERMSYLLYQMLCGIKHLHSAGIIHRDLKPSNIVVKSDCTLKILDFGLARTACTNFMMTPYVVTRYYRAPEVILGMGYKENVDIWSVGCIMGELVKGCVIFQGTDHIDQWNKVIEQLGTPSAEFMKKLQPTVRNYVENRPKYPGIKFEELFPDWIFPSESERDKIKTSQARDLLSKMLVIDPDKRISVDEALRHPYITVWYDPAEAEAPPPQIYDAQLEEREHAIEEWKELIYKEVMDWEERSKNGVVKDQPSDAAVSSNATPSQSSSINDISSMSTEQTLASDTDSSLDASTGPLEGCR
Serine/threonine-protein kinase Nek7 (Homo sapiens), sequence (Q8TDX7 whole entry, looked up): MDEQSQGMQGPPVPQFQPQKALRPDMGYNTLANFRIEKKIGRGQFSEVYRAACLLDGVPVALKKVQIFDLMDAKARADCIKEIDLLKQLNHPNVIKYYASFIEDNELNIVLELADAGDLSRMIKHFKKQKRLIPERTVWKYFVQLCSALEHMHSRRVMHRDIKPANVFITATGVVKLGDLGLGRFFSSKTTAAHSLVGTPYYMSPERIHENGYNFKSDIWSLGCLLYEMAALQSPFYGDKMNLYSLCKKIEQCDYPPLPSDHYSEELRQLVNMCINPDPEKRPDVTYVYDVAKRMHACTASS
Mast/stem cell growth factor receptor Kit (Homo sapiens), sequence (P10721 whole entry): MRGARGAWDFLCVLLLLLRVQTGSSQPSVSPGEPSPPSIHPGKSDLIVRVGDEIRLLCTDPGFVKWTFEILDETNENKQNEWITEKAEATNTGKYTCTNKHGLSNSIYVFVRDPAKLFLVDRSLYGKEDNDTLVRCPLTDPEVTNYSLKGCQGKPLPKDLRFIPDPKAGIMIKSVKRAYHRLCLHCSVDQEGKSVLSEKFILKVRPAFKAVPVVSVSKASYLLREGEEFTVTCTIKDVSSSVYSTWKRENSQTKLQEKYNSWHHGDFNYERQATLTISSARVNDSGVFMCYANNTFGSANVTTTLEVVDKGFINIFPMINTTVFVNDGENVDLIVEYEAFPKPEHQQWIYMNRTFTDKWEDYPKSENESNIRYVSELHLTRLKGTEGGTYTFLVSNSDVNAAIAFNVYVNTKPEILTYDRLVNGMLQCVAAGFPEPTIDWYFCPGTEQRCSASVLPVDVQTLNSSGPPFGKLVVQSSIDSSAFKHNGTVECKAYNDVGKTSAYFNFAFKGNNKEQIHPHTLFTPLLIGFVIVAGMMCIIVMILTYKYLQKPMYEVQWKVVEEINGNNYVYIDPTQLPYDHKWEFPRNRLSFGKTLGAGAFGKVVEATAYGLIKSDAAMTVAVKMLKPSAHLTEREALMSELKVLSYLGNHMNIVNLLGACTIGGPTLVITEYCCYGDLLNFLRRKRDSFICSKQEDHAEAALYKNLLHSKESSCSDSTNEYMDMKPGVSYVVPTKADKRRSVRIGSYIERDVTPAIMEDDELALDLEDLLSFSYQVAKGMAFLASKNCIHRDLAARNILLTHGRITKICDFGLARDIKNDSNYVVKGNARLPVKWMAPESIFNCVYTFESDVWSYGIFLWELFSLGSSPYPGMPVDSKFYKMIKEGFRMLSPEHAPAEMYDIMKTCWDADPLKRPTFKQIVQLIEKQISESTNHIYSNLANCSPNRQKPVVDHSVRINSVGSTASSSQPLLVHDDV
Mast/stem cell growth factor receptor Kit (Homo sapiens), P10721 [V559D,V654A], sequence (P10721 whole entry V559D/V654A): as the sequence (P10721 whole entry) above, with V559D, V654A counted along it

Regarding `O=C1c2ccc(Nc3ccc(F)cc3F)cc2CCc2ccc(OC[C@H](O)CO)cc21` [Skepinone-L], the Activity in [1] came out at 96%; in assay [3] it was 83%; in assay [4], 96%; in assay [5], 117%; in assay [6], 58%; in assay [7], 101%. Besides, the Activity is 100% in assay [8]; 105% in assay [9]; 99% in assay [10]; 88% in assay [11]; 95% in assay [12]; 111% in assay [13]. Further, the Activity in assay [14] is 100%; in assay [15], 100%; in assay [16], 99%; in [17], 87%; in [18] it was 100%; in assay [19], 91%. Besides, the IC50 result in [2] is on record as “Not Active”.
